{"source": "patent US5776927A", "about": "“Methionine sulfone and S-substituted cysteine sulfone derivatives as enzyme inhibitors” (Corvas International, Inc., priority 1994, dated 1998)", "key": {"citrated rat plasma": {"tested_on": "citrated rat plasma", "assay": "Ex vivo anticoagulant effect, activated partial thromboplastin time (APTT), rat plasma", "conditions": "control clotting time 19.75 sec set to 1.0", "experimental": "(§1) The ex vivo anticoagulant effects of BzlSO2 -Met(SO2)-Pro-Arg-al was determined by measuring the prolongation of the activated partial thromboplastin time (APTT) over a broad concentration range of the added inhibitor, using pooled normal human and rat plasma. Fresh frozen citrated pooled normal human plasma was obtained from George King Biomedical, Overland Park, Kans. Pooled normal rat plasma was prepared from citrated whole blood collected from anesthetized rats using standard procedures. The plasma was flash frozen and stored at -80° C. until use. Measurements APTT was made using the Coag-A-Mate RA4 automated coagulometer (General Diagnostics, Organon Technica, Oklahoma City, Okla.) using the Automated APTT reagent (Organon Technica, Durham, N.C.) as the initiator of clotting according to the manufacturers instructions.\n(§2) The assay was conducted by making a series of dilutions of the test compounds in rapidly thawed plasma followed by adding 200 microliters to the wells of the assay carousel."}, "citrated human plasma": {"tested_on": "citrated human plasma", "assay": "Ex vivo anticoagulant effect, activated partial thromboplastin time (APTT), human plasma", "conditions": "citrated pooled normal human plasma; control clotting time 28.3 sec set to 1.0", "experimental": "as §1, §2"}, "[1]": {"tested_on": "thrombotic occlusion of the rat carotid artery", "assay": "Rat model of FeCl3-induced platelet-dependent arterial thrombosis", "format": "in vivo, rat (male Harlan Sprague Dawley)", "conditions": "i.v. bolus", "source_text": "Kurz, K. D., Main, B. W., and Sandusky, G. E., Thromb. […] In this model a platelet-rich, occlusive thrombus is formed in a segment of the rat carotid artery treated locally with a fresh solution of FeCl3 absorbed to a piece of filter paper. The FeCl3 is thought to diffuse into the treated segment of artery and causes de-endothelialization of the affected vessel surface. […] The effect of a test compound on the incidence of occlusive thrombus formation following the application of the FeCl3 is monitored by ultrasonic flowtometry and is used as the primary end point. The use of flowtometry to measure carotid artery blood flow, is a modification of the original procedure in which thermal detection of clot formation was employed. Kurz, K. D., Main, B. W., and Sandusky, G. E., Thromb. […] Male Harlan Sprague Dawley rats (420-450 g) were acclimated at least 72 hours prior to use and fasted for 12 hours prior to surgery with free access to water. […] Blood pressure, blood flow, heart rate, and respiration were monitored for 60 minutes. The incidence of occlusion (defined as the attainment of zero blood flow) was recorded as the primary end point. […] This allows a direct comparison of the antithrombotic efficacy of BzlSO2 -[…] with other antithrombotic agents which have also been evaluated in this model as described above."}}}
{"smiles": "CS(=O)(=O)CC[C@H](NS(=O)(=O)Cc1ccccc1)C(=O)N1CCC[C@H]1C(=O)N[C@H](C=O)CCCNC(=N)N", "note": "[Example 27, N-benzylsulfonyl-L-methionine sulfone-L-proline-L-argininal]", "values": [{"measurement": "prolongation of the APTT", "setting": "citrated rat plasma", "result": "prolonged the APTT in a dose dependent manner in both rat and human plasma"}, {"measurement": "prolongation of the APTT", "setting": "citrated human plasma", "result": "prolonged the APTT in a dose dependent manner in both rat and human plasma"}, {"measurement": "efficacy in preventing thrombus formation (result in words)", "setting": "[1]", "result": "reduction in the incidence of thrombotic occlusion"}]}
